Reference: patent publication US20250340529A1, “Heterocyclic Compounds as Immunomodulators of PD-L1 Interactions” (Ascletis BioScience Co., Ltd, priority 2021, published 2025)

What was measured:
[1] = target: PD-L1/CHO-K1 cells (Homo sapiens (Human), UniProt Q9NZQ7); experiment: PD-L1 internalization (FACS, PD-L1/CHO-K1 cells); format: cell-based; conditions: % activation of PD-L1 internalization = 1 − PD-L1 signal; 17 hours incubation
How it was run: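 PD-L1/CHO-K1 cells treated 17 h at 37 °C with compound (0.2% DMSO final), then surface PD-L1 stained with PE anti-CD274 and read by flow cytometry. Signal normalized to vehicle (100%) and unstained control (0%); internalization = 1 − normalized PD-L1 signal.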

[2] = target: PD-1/PD-L1 (Homo sapiens (Human), UniProt Q9NZQ7); experiment: PD-1/PD-L1 Homogeneous Time-Resolved Fluorescence (HTRF) binding assay; conditions: 3 nM PD1, 10 nM PD-L1, 25° C., PBS pH 7.4
Chain of PD-1/PD-L1 (Q9NZQ7 19-238): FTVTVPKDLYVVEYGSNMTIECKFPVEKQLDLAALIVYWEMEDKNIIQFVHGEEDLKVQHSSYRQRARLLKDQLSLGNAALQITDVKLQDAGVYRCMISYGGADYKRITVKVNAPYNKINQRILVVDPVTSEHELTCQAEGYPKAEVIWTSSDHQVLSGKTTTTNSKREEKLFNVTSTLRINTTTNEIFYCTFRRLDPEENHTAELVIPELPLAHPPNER
How it was run: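 HTRF with His-tagged human PD-L1 (19-238, 10 nM) and Fc-tagged human PD-1 (25-167, 3 nM) preincubated with inhibitors 40 min in PBS pH 7.4, 0.05% Tween-20, 0.1% BSA, 1% DMSO, 25° C. Eu anti-human IgG and anti-His-APC added, 60 min; 665/620 nm ratio; IC50 from percent control activity fit.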

[3] = target: extracellular domains of PD-L1 (Homo sapiens (Human), UniProt Q9NZQ7); experiment: PD-L1 dimerization (biochemical protein-protein interaction assay); conditions: PDL1-Eu and PDL1-A2, 25° C., 120 min
Chain of extracellular domains of PD-L1 (Q9NZQ7 19-238): as above
Procedure: Compounds were tested in biochemical protein-protein interaction assays to determine if they can specifically dimerize the extracellular domains of PD-L1. • (1) Dilute cpd 1:3 in succession in DMSO for each column for 10±0 pts (refer to dilution plate map) • (2) Transfer 0.2 μL cpds solution in each row to 384 assay plate using Echo, each column containing 2 replicates (refer to assay plate map). • (3) Add 20 μL prepared mixture include PDL1-Eu and PDL1-A2 solution to assay plate, centrifuge at 1000 rpm for 1 min. • (4) Incubate at 25° C. for 120 min. • (5) Read fluorescence signal on Envision 2104 plate reader. • (6) Read the Ratio (665 nm/615 nm) signal on Envision. • (7) Analyze the raw data using the equation (V. Data analysis)

Chain of PD-L1/CHO-K1 cells (Q9NZQ7 19-290): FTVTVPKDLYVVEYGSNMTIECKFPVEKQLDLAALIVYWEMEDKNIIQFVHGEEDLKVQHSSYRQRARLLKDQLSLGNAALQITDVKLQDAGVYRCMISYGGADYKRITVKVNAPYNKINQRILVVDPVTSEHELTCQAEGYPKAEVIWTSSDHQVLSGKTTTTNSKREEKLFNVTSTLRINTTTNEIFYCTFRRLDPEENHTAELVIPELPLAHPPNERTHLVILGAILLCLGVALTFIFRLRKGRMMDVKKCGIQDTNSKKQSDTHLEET

Internalization [1] | IC50 [2] | EC50 [3] | SMILES
67.00% | 3.58 nM | 77.9 nM | O=C(O)[C@H](CO)NCCN1C(=O)COc2cc(-c3cccc(-c4cccc(-c5ccc6c(c5)OCC(=O)N6CCN[C@@H](CO)C(=O)O)c4Cl)c3Cl)ccc21 [Compound 465]
98.10% | 8.62 nM |  | O=C1COc2cc(-c3cccc(-c4cccc(-c5ccc6c(c5)OCC(=O)N6C[C@H]5CCCN5)c4Cl)c3Cl)ccc2N1C[C@H]1CCCN1 [Compound 529]
